Data as given in US20140065226A1, “THERMO-RESPONSIVE HYDROGEL COMPOSITIONS” (priority 2011, published 2014).
Values joined by “and” are separate entries in the source; they are usually repeats but may differ in a detail not shown here. Identical values can stand only once. Counter-ions that a name gives are not always drawn. Like-named read-outs stand apart in the source and are kept apart here.

Assays:
[1] = for release from pure thermo-responsive hydrogels: previous tests
Procedure: Drug release was carried out in PBS at 37° C. […] Drug release samples were taken at predetermined time intervals and tested for anti-proliferative activity with fibroblast MTS assay as described previously. Briefly, 3T3 fibroblast cells were seeded in 96-well plates as 5000 cells/well. After cells were grown to semiconfluence, growth was arrested by washing plates with PBS and then adding low serum medium with DMEM, 0.5% (v/v) FBS and 1% (v/v) penicillin/streptomycin mixture. Growth arrest was maintained for 24 hours. The cell cycle synchronized cells were then re-stimulated to enter G1 phase by changing back to growth medium. […] PBS was added to growth medium as control group.
To quantify the size distribution of nanospheres, the suspension was sampled and serially filtered through 0.45 μm, 0.22 μm, and 0.1 μm filters. The drug concentration after each filtration was quantified and calculated within each nanosphere size distribution. Nanospheres with size >100 nm in diameter were harvested by ultrafiltration and centrifugation. The harvested nanospheres were washed twice with DI water to remove excess PVA. The resultant nanosphere suspension was immersed in fresh PBS at 37° C. to initiate release. […] The release samples were taken continuously for 1 day. All samples were quantified for 3H concentration using a scintillation counter. Each experiment was conducted in triplicate.
The samples were taken continuously for the first 24 hours. The drug concentration was measured spectrophotometrically at 240 nm.

[2] = oil: methylene chloride + methanol

SMILES	release from free nanospheres ([1]; PBS, 37° C.)	release from nanospheres loaded hydrogels ([1]; PBS, 37° C.)	release from pure thermo-responsive hydrogels ([1]; after the first two hours)	drug release from PLGA nanospheres ([1]; within 24 hours, 37° C., PBS, disodium salt)	release from pure thermo-responsive hydrogels ([1]; within the first two hours)	P (oil/water) ([2]; water: 0.2% PVA)	P (oil/water) ([2]; water: 2% PVA)	P (oil/water) ([2]; water: 2% PVA + 0.25N (NH4)2SO4)	P (oil/water) ([2]; water: 2% PVA + 0.5N NaCl)
C[C@@H]1C[C@H]2[C@@H]3CCC4=CC(=O)C=C[C@]4(C)[C@@]3(F)[C@@H](O)C[C@]2(C)[C@@]1(O)C(=O)COP(=O)(O)O [Dexamethasone sodium phosphate, Dexamethasone 21-phosphate disodium salt]	sustained release over 24 hours	sustained release over 24 hours	less than 10%	> 90% and ~90%	~90%	0.06	0.15	0.86	0.26
[3H]C1=C([3H])[C@@]2(C)C(=C([3H])C1=O)CC[C@H]1[C@@H]3C[C@@H](C)[C@](O)(C(=O)CO)[C@@]3(C)C[C@H](O)[C@@]12F [[1,2,4-^3H]dexamethasone, [1,2,4-^3H]dexamethasone]	–	–	–	–	–	2.93	–	–	–
